The results in this text go back to paper PMC9698607, “Dual Functionalized Liposomes for Selective Delivery of Poorly Soluble Drugs to Inflamed Brain Regions” (Pharmaceutics, 2022).

Series [1] concerns TNFα release from BV2 microglial cells. As to the kind of experiment: TNFα ELISA in LPS-stimulated BV2 cells. Type of series: cell-based, mouse. Particulars: free glibenclamide 10 to 80 μM for 60 h, then LPS for 8 h. The protocol:
(§1) BV2 microglial cells, RAW264.7 and Neuro2A (N2A) cells were cultured in DMEM supplemented with 10% heat-inactivated FBS, 100 U/mL penicillin and 100 μg/mL streptomycin at 37 °C in a humidified 5% CO2 atmosphere. The day before the experiment, BV2 cells were plated on 24 well plates at 80,000 cells/well; LPS was dissolved in PBS as a stock solution (1 mg/mL), and stored at −20 °C. BV2 cells seeded into multiplates were exposed to LPS (0.5 µg/mL) in presence or absence of glibenclamide (40 µM), empty mApoE-MSLP1-liposomes and mApoE-MSLP1 loaded with glibenclamide. Cells were left in vitro for 40 or 60 h, treated with LPS for additional 8 h before using supernatants for an ELISA assessment of TNFα and IL-6. BV2 cells were seeded in 24-well plates at 80,000 cells/well, then treated with LPS (0.5 µg/mL) to induce TNFα and IL-6 production. Cells were treated for 8 h. Cytokine levels in cells supernatants collected before and after treatment were assayed using the mouse TNF-alpha DuoSet ELISA (R&D Systems, DY410) and the mouse IL-6 DuoSet ELISA kit (R&D Systems, DY406), according to manufacturer’s instructions.
A general note: In an ELISA, binding on a coated surface is turned into a signal by an enzyme label.

Series [2] deals with IL-6 release from BV2 microglial cells. In words: IL-6 ELISA in LPS-stimulated BV2 cells. The class given is cell-based, mouse. Particulars: free glibenclamide 10 to 80 μM for 60 h, then LPS for 8 h. The protocol: as §1, with “BV2 cells seeded into multiplates were exposed to LPS (0.5 µg/mL) in presence or absence of glibenclamide (40 µM), empty mApoE-MSLP1-liposomes and mApoE-MSLP1 loaded with glibenclamide.” left out

The subject of series [3] is primary neurons. As to the kind of experiment: LDH-Glo cytotoxicity assay on primary neurons. The class given is cell-based. Particulars: primary mouse cortical neurons; 24 h; 0.085, 0.85, 8.5 and 85 µM glibenclamide; supernatants.
Method: Primary neuronal cell cultures were established from C57Bl/6J E17.5 embryonic cerebral cortices (Charles River), according to our published protocol [37]. Briefly, we dissected forebrains in cold HBSS supplemented with 0.6% glucose and 5 mM HEPES pH 7.4 to obtain cerebral cortices. Cortices were mechanically dissociated in single cell preparations and re-suspended in culture medium containing Neurobasal, 5 mM HEPES pH 7.4, 0.6% glucose and the 1× B27 supplement. Cells were plated at 30,000 cells/well on 96 multi wells previously coated with poly lysine (0.2 mg/mL), and primed with Dulbecco’s modified Eagle’s media (DMEM) 20% FBS. […] Neurons were left to mature for 16 days, and upon visual inspection were used for cytotoxicity assays.
A bioluminescent lactate dehydrogenase (LDH)-release assay (LDH-Glo Cytotoxicity Assay, Promega) was used to assess cytotoxicity in supernatants of cells treated with liposomes according to manufacturer’s instruction. […] In each experiment, we calculated the % of cytotoxicity as follows:(Exp.LDH Release − MB)/(Max LDH Release Control − MB)(2) where MB is Medium Background.
In series [4] the test system is primary neurons. In words: CCK8 cell viability assay on primary neurons. The class given is cell-based. Particulars: primary mouse cortical neurons, 16 days in vitro; 24 h; 0.085, 0.85, 8.5 and 85 µM glibenclamide; compared with DMSO controls. The protocol: C57BL6J mice were maintained under pathogen-free conditions at San Raffaele Hospital mouse facility (Milan, Italy). Procedures were performed according to the guidelines of the Institutional Animal Care and Use Committee of the San Raffaele Scientific Institute and the Ministry of Health (protocol number 372/2021-PR). Primary neuronal cell cultures were established from C57Bl/6J E17.5 embryonic cerebral cortices (Charles River), according to our published protocol. Briefly, we dissected forebrains in cold HBSS supplemented with 0.6% glucose and 5 mM HEPES pH 7.4 to obtain cerebral cortices. Cortices were mechanically dissociated in single cell preparations and re-suspended in culture medium containing Neurobasal, 5 mM HEPES pH 7.4, 0.6% glucose and the 1× B27 supplement. Cells were plated at 30,000 cells/well on 96 multi wells previously coated with poly lysine (0.2 mg/mL), and primed with Dulbecco’s modified Eagle’s media (DMEM) 20% FBS. Cells were maintained in a humidified 5% CO2/95% air environment at 37 °C. […] Cell viability was measured using the Cell Counting Kit-8 (CCK8) Metabolic Assay Kit, following the manufacturer’s protocol (Sigma-Aldrich, Burlington, VT, USA). […] We measured samples absorbance every 30 min at 450 nm, using a Multiskan Sky (Thermo fisher scientific, Waltham, MA, USA). Absorbance readings were subsequently normalized to the mean value of the controls.

The target of the next series is T1, Recombinant human MMP2 (Homo sapiens, UniProt P08253).
T1 construct: purchased R&D Systems
T1 sequence (P08253 110-660): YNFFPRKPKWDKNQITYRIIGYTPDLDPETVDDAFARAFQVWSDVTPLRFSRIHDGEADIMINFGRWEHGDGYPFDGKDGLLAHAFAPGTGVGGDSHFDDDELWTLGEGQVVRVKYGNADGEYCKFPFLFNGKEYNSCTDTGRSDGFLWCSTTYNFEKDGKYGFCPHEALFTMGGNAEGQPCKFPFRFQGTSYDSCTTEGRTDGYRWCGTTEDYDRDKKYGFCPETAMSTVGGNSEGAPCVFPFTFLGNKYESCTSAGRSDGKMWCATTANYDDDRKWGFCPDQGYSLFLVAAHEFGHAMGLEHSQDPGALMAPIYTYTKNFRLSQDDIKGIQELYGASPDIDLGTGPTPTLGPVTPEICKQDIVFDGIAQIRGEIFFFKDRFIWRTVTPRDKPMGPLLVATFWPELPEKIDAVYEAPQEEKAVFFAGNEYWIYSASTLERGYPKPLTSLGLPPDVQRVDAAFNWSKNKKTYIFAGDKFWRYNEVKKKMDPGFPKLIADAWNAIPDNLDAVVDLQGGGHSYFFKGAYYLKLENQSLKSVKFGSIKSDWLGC
In words: MMP2 activity assay on MSLPs (HPLC). Particulars: 48 h, 37 °C, 0.1 μg/mL rhMMP2, 100 μM MSLP, 50 mM Tris, 10 mM CaCl2, 150 mM NaCl, 0.05% Brij 35, pH 7.5. Type of series: biochemical. The protocol:
(§2) Recombinant human MMP2 (rhMMP2, R&D system, Minneapolis, MN, USA) was diluted to 0.2 μg/mL in 200 µL assay buffer (50 mm Tris, 10 mM CaCl2, 150 mm NaCl, 0.05% (w/v) Brij 35, pH 7.5). The enzymatic reaction was started by adding 200 μL of 200 μM MSLPs in the assay buffer, and was stirred at 37 °C for 48 h. Final concentrations were 0.1 μg/mL for MMP2 and 100 μM for MSLPs. The reaction was monitored by HPLC between 1 and 48 h on a small aliquot, by deactivating the enzyme with a 10% aqueous TFA solution. MSLPs’ solutions in assay buffer (see below) were used as a blank. A pronase/unspecific protease activity assay on MSLPs was carried out by diluting a mixture of proteolytic enzymes at 2 ng/mL, 0.2 µg/mL and 20 µg/mL in 200 µL assay buffer (50 mm Tris, 10 mm CaCl2, 150 mm NaCl, 0.05% (w/v) Brij 35, pH 7.5). The enzymatic reaction was started by adding 200 μL of 200 μM MSLPs in the assay buffer, and was stirred at 37 °C for 48 h. Final concentrations of 1 ng/mL, 0.1 μg/mL and 10 μg/mL (Pronase) and 100 μM (MSLPs) were used. The reaction was monitored by HPLC between 1 and 48 h on a small aliquot, by deactivating the enzymes with a 10% aqueous TFA solution. MSLPs’ solutions in assay buffer were used as a blank.

The subject of a further series is pronase. As to the kind of experiment: Pronase/unspecific protease activity assay on MSLPs (HPLC). The class given is biochemical. Particulars: 100 μM MSLP, 37 °C, up to 48 h, assay buffer pH 7.5. The protocol: as §2

For the compound `COc1ccc(Cl)cc1C(=O)NCCc1ccc(S(=O)(=O)NC(=O)NC2CCCCC2)cc1` [glibenclamide], the TNFα levels entry in series [1] is listed as “dose-dependent reduction”. In addition, in series [2], the IL-6 levels entry was “dose-dependent reduction”. Besides, in the series on primary neurons [3], the “cytotoxicity (LDH release)” value is listed as “did not increase cytotoxicity”. In addition, the “cell viability (CCK8)” value in the series with primary neurons [4] is “did not affect cell viability”.

On to “SKK(stearate)GSALGQIGPSK(stearate)KS [c-MSLP]”, for which the “HPLC peak of lipopeptide after incubation with MMP2” value (“HPLC peak of lipopeptide” below) at Recombinant human MMP2 is given as “still present”.

As for “SKK(stearate)SGAKPRA-LTASK(stearate)KS [MSLP-2, MMP2/9-responsive lipopeptide with two stearate tails]”, the “HPLC peak of lipopeptide” value at Recombinant human MMP2 was “still present”. Also, in the series on pronase (10 μg/mL pronase), the cleavage by pronase entry is on record as “complete cleavage”. Besides, the “change of intensity of HPLC peak with pronase” value in the series on pronase (lower pronase concentrations (1 ng/mL, 0.1 μg/mL)) is “no significant change”.

Take “SKK(stearate)SGPLGIAGQSK(stearate)KS [MSLP-1, MMP2-responsive lipopeptide with two stearate tails]”: the “HPLC peak of lipopeptide” value on Recombinant human MMP2 was “completely disappeared”.
